Measured values taken from patent US8809331B2 (Genentech, Inc., priority 2011, dated 2014).

Biological target: T1, LRRK2 (Homo sapiens, UniProt Q5S007, G2019S)
T1 construct: purchased Invitrogen PV4882
Assay: In Vitro LRRK2 LabChip Assay (LRRK2 Ki)
Assay type: biochemical
Conditions: Table 5 compounds (formula I)

T1 sequence (Q5S007 whole entry G2019S): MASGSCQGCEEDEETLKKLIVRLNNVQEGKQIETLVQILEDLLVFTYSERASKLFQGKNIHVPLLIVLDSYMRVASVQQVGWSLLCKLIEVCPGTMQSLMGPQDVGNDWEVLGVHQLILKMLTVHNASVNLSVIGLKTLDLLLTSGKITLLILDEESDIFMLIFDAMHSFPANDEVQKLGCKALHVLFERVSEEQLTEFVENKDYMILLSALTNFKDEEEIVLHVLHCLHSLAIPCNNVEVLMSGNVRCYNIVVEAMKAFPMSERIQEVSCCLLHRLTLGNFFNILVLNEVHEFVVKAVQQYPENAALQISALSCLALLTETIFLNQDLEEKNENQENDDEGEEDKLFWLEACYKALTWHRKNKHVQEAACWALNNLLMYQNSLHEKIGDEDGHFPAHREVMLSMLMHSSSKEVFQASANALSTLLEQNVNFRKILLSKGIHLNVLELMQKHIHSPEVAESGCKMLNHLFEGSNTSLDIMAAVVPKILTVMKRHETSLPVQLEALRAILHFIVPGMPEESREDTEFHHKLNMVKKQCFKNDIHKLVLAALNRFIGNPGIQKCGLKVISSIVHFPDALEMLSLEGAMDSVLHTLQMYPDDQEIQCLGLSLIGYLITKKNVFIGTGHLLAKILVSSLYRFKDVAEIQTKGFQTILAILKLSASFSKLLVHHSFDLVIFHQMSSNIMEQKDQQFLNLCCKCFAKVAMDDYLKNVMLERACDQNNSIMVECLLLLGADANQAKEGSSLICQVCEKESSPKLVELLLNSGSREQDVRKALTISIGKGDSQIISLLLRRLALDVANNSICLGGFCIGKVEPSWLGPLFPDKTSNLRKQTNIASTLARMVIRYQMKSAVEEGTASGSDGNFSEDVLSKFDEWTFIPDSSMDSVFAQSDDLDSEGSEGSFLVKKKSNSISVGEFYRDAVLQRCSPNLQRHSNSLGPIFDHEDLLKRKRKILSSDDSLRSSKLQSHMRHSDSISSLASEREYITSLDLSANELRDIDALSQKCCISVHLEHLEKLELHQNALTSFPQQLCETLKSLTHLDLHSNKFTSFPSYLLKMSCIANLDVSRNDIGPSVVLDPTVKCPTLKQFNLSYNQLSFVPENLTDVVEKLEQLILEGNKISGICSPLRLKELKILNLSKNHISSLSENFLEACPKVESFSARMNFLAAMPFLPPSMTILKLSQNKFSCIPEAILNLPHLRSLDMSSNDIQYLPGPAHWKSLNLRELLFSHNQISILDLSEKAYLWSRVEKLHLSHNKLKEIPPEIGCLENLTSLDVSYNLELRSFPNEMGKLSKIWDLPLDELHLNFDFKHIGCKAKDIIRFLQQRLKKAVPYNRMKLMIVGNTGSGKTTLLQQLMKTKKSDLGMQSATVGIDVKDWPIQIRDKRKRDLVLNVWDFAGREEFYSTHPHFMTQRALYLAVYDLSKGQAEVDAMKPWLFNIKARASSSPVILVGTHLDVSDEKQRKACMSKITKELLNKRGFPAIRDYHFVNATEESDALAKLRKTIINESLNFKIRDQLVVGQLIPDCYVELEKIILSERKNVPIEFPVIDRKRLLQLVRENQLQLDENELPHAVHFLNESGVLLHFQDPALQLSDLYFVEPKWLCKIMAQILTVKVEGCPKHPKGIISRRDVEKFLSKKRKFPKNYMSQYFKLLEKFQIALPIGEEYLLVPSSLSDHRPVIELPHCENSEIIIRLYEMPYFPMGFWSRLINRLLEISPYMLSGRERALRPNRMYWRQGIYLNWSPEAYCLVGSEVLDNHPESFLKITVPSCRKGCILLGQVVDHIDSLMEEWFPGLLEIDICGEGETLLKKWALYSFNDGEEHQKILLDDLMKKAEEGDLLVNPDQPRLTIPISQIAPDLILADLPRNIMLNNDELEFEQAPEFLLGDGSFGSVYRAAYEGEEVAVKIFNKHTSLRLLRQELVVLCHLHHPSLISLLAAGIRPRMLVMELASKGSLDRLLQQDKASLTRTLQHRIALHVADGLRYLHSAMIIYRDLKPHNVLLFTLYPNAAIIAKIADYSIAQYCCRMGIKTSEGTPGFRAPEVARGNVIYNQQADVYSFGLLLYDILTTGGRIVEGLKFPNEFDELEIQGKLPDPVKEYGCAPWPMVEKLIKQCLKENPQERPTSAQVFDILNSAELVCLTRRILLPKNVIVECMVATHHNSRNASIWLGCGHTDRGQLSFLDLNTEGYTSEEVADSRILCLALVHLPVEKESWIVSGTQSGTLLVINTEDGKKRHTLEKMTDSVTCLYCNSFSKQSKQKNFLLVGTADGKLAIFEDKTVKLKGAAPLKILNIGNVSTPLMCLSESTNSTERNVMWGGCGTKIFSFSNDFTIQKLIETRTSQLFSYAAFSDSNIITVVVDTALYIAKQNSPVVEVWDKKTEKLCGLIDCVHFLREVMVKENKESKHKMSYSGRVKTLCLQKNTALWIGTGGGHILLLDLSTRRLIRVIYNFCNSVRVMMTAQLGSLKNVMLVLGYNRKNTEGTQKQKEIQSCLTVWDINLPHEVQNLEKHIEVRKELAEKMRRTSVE

Ki | Structure (SMILES)
27.1 nM | CNc1nc(Nc2cc(OC(F)F)c(C(=O)N3CCOCC3)cc2Cl)ncc1C(F)(F)F [Compound 79, [5-Chloro-2-difluoromethoxy-4-(4-methylamino-5-trifluoromethyl-pyrimidin-2-ylamino)-phenyl]-morpholin-4-yl-methanone]
10.4 nM | CCNc1nc(Nc2cc(F)c(C(=O)N3CC[C@H](F)C3)cc2OC)ncc1C#N [Compound 80, 4-Ethylamino-2-[5-fluoro-4-((S)-3-fluoro-pyrrolidine-1-carbonyl)-2-methoxy-phenylamino]-pyrimidine-5-carbonitrile]
51.6 nM | CCNc1nc(Nc2cc(OC)c(C(=O)N3CC[C@H](F)C3)cc2F)ncc1C#N [Compound 81, 4-Ethylamino-2-[2-fluoro-4-((S)-3-fluoro-pyrrolidine-1-carbonyl)-5-methoxy-phenylamino]-pyrimidine-5-carbonitrile]
2.82 nM | CNc1nc(Nc2cc(OC)c(C(=O)N3CCOCC3)c(OC)c2Cl)ncc1C(F)(F)F [Compound 82, [3-Chloro-2,6-dimethoxy-4-(4-methylamino-5-trifluoromethyl-pyrimidin-2-ylamino)-phenyl]-morpholin-4-yl-methanone]
1.74 nM | CNc1nc(Nc2ccc(C(=O)N3CCOC(C)(C)C3)cc2OC)ncc1C(F)(F)F [Compound 83, (2,2-Dimethyl-morpholin-4-yl)-[3-methoxy-4-(4-methylamino-5-trifluoromethyl-pyrimidin-2-ylamino)-phenyl]-methanone]
2.34 nM | CNc1nc(Nc2cc(C)c(C(=O)N3CCOCC3)cc2OCCF)ncc1C(F)(F)F [Compound 84, [5-(2-Fluoro-ethoxy)-2-methyl-4-(4-methylamino-5-trifluoromethyl-pyrimidin-2-ylamino)-phenyl]-morpholin-4-yl-methanone]
4.72 nM | CNc1nc(Nc2cc(OC)c(C(=O)N3CCCC3)cc2OCCF)ncc1C(F)(F)F [Compound 85, [5-(2-Fluoro-ethoxy)-2-methoxy-4-(4-methylamino-5-trifluoromethyl-pyrimidin-2-ylamino)-phenyl]-pyrrolidin-1-yl-methanone]
4.09 nM | [2H]C1([2H])OC([2H])([2H])C([2H])([2H])N(C(=O)c2cc(Cl)c(Nc3ncc(C(F)(F)F)c(NCC)n3)cc2OC)C1([2H])[2H] [Compound 86, (5-chloro-4-(4-(ethylamino)-5-(trifluoromethyl)pyrimidin-2-ylamino)-2-methoxyphenyl)(perdeuteromorpholino)methanone]

The next lines start with the compound.

Structure (SMILES) | Ki
CNc1nc(Nc2cc(F)c(C(=O)N3CCOCC3)c(F)c2OC)ncc1C(F)(F)F [Compound 63, [2,6-Difluoro-3-methoxy-4-(4-methylamino-5-trifluoromethyl-pyrimidin-2-ylamino)-phenyl]-morpholin-4-yl-methanone] | 24.3 nM
CCOc1nc(Nc2cc(F)c(C(=O)N3CCOCC3)cc2OC)ncc1C(F)(F)F [Compound 64, [4-(4-Ethoxy-5-trifluoromethyl-pyrimidin-2-ylamino)-2-fluoro-5-methoxy-phenyl]-morpholin-4-yl-methanone] | 16.9 nM
CNc1nc(Nc2cc(OC)c(C(=O)N3CCOCC3)cc2OC)ncc1C(F)(F)F [Compound 65, [2,5-Dimethoxy-4-(4-methylamino-5-trifluoromethyl-pyrimidin-2-ylamino)-phenyl]-morpholin-4-yl-methanone] | 1.09 nM
CCNc1nc(Nc2cc(OC)c(C(=O)N3CCC(F)(F)C3)cc2OCF)ncc1C(F)(F)F [Compound 66, (3,3-Difluoro-pyrrolidin-1-yl)-[4-(4-ethylamino-5-trifluoromethyl-pyrimidin-2-ylamino)-5-fluoromethoxy-2-methoxy-phenyl]-methanone] | 0.388 nM
CNc1nc(Nc2cc(C(F)(F)F)c(C(=O)N3CCOCC3)cc2OC)ncc1C(F)(F)F [Compound 67, [5-Methoxy-4-(4-methylamino-5-trifluoromethyl-pyrimidin-2-ylamino)-2-trifluoromethyl-phenyl]-morpholin-4-yl-methanone] | 2.53 nM
CNc1nc(Nc2cc(C(F)(F)F)c(C(=O)N3CCOCC3)cc2OC)ncc1Cl [Compound 68, [4-(5-Chloro-4-methylamino-pyrimidin-2-ylamino)-5-methoxy-2-trifluoromethyl-phenyl]-morpholin-4-yl-methanone] | 4.73 nM
CNc1nc(Nc2cc(F)c(C(=O)N3CCOCC3)cc2Cl)ncc1C(F)(F)F [Compound 69, [5-Chloro-2-fluoro-4-(4-methylamino-5-trifluoromethyl-pyrimidin-2-ylamino)-phenyl]-morpholin-4-yl-methanone] | 9.31 nM
O=C(c1cc(OCCF)c(Nc2ncc(C(F)(F)F)c(NC3CC3)n2)cc1F)N1CCOCC1 [Compound 70, [4-(4-Cyclopropylamino-5-trifluoromethyl-pyrimidin-2-ylamino)-2-fluoro-5-(2-fluoro-ethoxy)-phenyl]-morpholin-4-yl-methanone] | 0.658 nM
CCNc1nc(Nc2cc(C)c(C(=O)N3CCOCC3)cc2Cl)ncc1C(F)(F)F [Compound 71, [5-Chloro-4-(4-ethylamino-5-trifluoromethyl-pyrimidin-2-ylamino)-2-methyl-phenyl]-morpholin-4-yl-methanone] | 1.08 nM
CCNc1nc(Nc2cc(OCF)c(C(=O)N3CCOCC3)cc2Cl)ncc1C(F)(F)F [Compound 72, [5-Chloro-4-(4-ethylamino-5-trifluoromethyl-pyrimidin-2-ylamino)-2-fluoromethoxy-phenyl]-morpholin-4-yl-methanone] | 1.46 nM
CNc1nc(Nc2cc(C)c(C(=O)N3CCOCC3)cc2F)ncc1C(F)(F)F [Compound 73, [5-Fluoro-2-methyl-4-(4-methylamino-5-trifluoromethyl-pyrimidin-2-ylamino)-phenyl]-morpholin-4-yl-methanone] | 4.97 nM
CCNc1nc(Nc2cc(F)c(C(=O)N3CCOCC3)cc2Cl)ncc1C(F)(F)F [Compound 74, [5-Chloro-4-(4-ethylamino-5-trifluoromethyl-pyrimidin-2-ylamino)-2-fluoro-phenyl]-morpholin-4-yl-methanone] | 4.65 nM
COc1cc(C(=O)N2CCOCC2)c(F)cc1Nc1ncc(C(F)(F)F)c(N[C@@H]2C[C@@H]2F)n1 [Compound 75, {2-Fluoro-4-[4-((1R,2S)-2-fluoro-cyclopropylamino)-5-trifluoromethyl-pyrimidin-2-ylamino]-5-methoxy-phenyl}-morpholin-4-yl-methanone] | 2.19 nM
CNc1nc(Nc2cc(F)c(C(=O)N3CCOC(C)(C)C3)cc2OC)ncc1C(F)(F)F [Compound 76, (2,2-Dimethyl-morpholin-4-yl)-[2-fluoro-5-methoxy-4-(4-methylamino-5-trifluoromethyl-pyrimidin-2-ylamino)-phenyl]-methanone] | 6.86 nM
CNc1nc(Nc2ccc(C(=O)N3CCOCC3)cc2OC2CC2)ncc1C(F)(F)F [Compound 77, [3-Cyclopropoxy-4-(4-methylamino-5-trifluoromethyl-pyrimidin-2-ylamino)-phenyl]-morpholin-4-yl-methanone] | 1.62 nM
CCNc1nc(Nc2cc(OC(F)F)c(C(=O)N3CCOCC3)cc2Cl)ncc1C(F)(F)F [Compound 78, [5-Chloro-2-difluoromethoxy-4-(4-ethylamino-5-trifluoromethyl-pyrimidin-2-ylamino)-phenyl]-morpholin-4-yl-methanone] | 6.87 nM
